Measured values taken from US20040180850A1, “Methods and compositions for treatment of gastric diseases” (priority 2001, published 2004).
Entries after “also recorded” stand apart in the source; their conditions may differ.

Key:
[1] = system: Helicobacter pylori; experiment: TLC overlay assay of neoglycolipids (reductively aminated oligosaccharides); type: binding
Excerpt: The Helicobacter pylori binding oligosaccharide sequence has been reported in the structure GlcNAcβ3Galβ4GlcNAcβ6GalNAc from human gastric mucins. […] Therefore the preferred oligosaccharide sequences include O-glycans and analogues of O-glycan sequences such as GlcNAcβ3Galβ4GlcNAcβ6GlcNAc/GalNAc/Gal, GleNAcβ3Galβ4GlcNAcβ6GlcNAc/GalNAc/GalαSer/Thr, GlcNAcβ3Galβ4GlcNAcβ6(Gal/GlcNAcβ3)GlcNAc/GalNAc/GalαSer/Thr and glycopeptides and glycopeptide analogs comprising the O-glycan sequences. Even sequences lacking the non-reducing end GlcNAc may have some activity. Based on this all the other Helicobacter pylori binding oligosaccharide sequences (OS) and especially the trisaccharide epitopes are also especially preferred when linked from the reducing end to form structures OSβ6Gal(NAc)0-1 or OSβ6Glc(NAc)0-1 or OSβ6Gal(NAc)0-1Ser/Thr or OSβ6Glc(NAc)0-1αSer/Thr. The Ser or Thr-compounds or analogue thereof or the reducing oligosaccharides are also preferred when linked to a polyvalent carrier. The reducing oligosaccharides can be reductively linked to the polyvalent carrier.
TLC bacterial overlay assay. Thin-layer chromatography was performed on glass- or aluminum-backed silica gel 60 HPTLC plates (Merck, Darmstadt, Germany) using chloroform/methanol/water 60:35:8 (by volume) as solvent system. Chemical detection was accomplished by anisaldehyde stainig (Waldi, 1962). The bacterial overlay assay was performed as described previously (Hansson et al., 1985). Glycosphingolipids (1-4 μg/lane, or as indicated in the figure legend) were chromatographed on aluminum-backed silica gel plates and thereafter treated with 0.3-0.5% polyisobutylmethaerylate in diethylether/n-hexane 1:3 (by volume) for 1 min, dried and subsequently soaked in PBS containing 2% bovine serum albumin and 0.1% Tween 20 for 2 h A suspension of radio-labeled bacteria (diluted in PBS to 1×10^8 CFU/ml and 1-5×10^6 cpm/ml) was sprinkled over the chromatograms and incubated for 2 h followed by repeated rinsings with PBS. After drying the chromatograms were exposed to XAR-5 X-ray films (Eastman Kodak Co., Rochester, N.Y., USA) for 12-100 h.
0.6 mg of pentasaccharide was obtained after HPLC-purcation steps, the saccharide was more than 98% pure when analyzed by mass spectrometry. Part of the pentasaccharide and maltoheptaose (Sigma, Saint Louis, USA) were reductively aminated with 4-hexadecylamnie (abbreviation HDA, from Aldrich, Stockholm, Sweden) by cyanoborohydride (Halina Miller-Podraza, to be published later). […]

[2] = system: Helicobacter pylori; experiment: Semi-quantitative TLC overlay test with dilution series of glycosphingolipids; type: binding; conditions: evaluated visually after overlay with labeled bacteria and autoradiography
[3] = system: Helicobacter pylori (strain 032); experiment: TLC bacterial overlay assay: binding of radiolabeled Helicobacter pylori to glycosphingolipids separated on thin-layer chromatograms; conditions: for Helicobacter pylori binding activity of glycosphingolipid (in words): TLC overlay with 35S-labeled bacteria, autoradiography; for binding frequency for Helicobacter pylori: strain 032, total number of plates about 100

| Compound | Helicobacter pylori binding activity of glycosphingolipid (in words) [3] | also measured |
| --- | --- | --- |
| CC(=O)N[C@H]1[C@H](OC[C@H]2OC(O)[C@H](O)[C@@H](O)[C@H]2O)O[C@H](CO)[C@@H](O[C@@H]2O[C@H](CO)[C@H](O)[C@H](O[C@@H]3O[C@H](CO)[C@@H](O)[C@H](O)[C@H]3NC(C)=O)[C@H]2O)[C@@H]1O (some centres unmarked) [GlcNAcβ3Galβ4GlcNAcβ6Gal] |  | binding activity of neoglycolipid with regard to Helicobacter pylori (in words) [1]: some binding activity |
| Galβ4GlcNAcβ3Galβ4Glcβ1Cer [No. 5] | displayed binding activity | amount of glycolipid giving a positive response on TLC plates (binding of Helicobacter pylori) [2]: ~0.3 nmol/spot |
| GalNAcβ3Galβ4GlcNAcβ3Galβ4Glcβ1Cer [No. 11] | binding was also found |  |
| CC(=O)N[C@H]1[C@H](OC[C@H]2OC(O)[C@H](NC(C)=O)[C@@H](O)[C@@H]2O)O[C@H](CO)[C@@H](O[C@@H]2O[C@H](CO)[C@H](O)[C@H](O[C@@H]3O[C@H](CO)[C@@H](O)[C@H](O)[C@H]3NC(C)=O)[C@H]2O)[C@@H]1O (some centres unmarked) [GlcNAcβ3Galβ4GlcNAcβ6GlcNAc] |  | binding activity of neoglycolipid with regard to Helicobacter pylori (in words) [1]: high affinity binding |
| Galα4Galβ4GlcNAcβ3Galβ4Glcβ1Cer [No. 15] | absence of binding |  |
| GalNAcβ3Galα3Galβ4GlcNAcβ3Galβ4Glcβ1Cer [No. 25] | non-binding |  |
| GlcNAcβ3Galβ4Glcβ1Cer [No. 1] | inactive |  |
| Galβ4Glcβ1Cer [diglycosylceramide] | displayed binding activity |  |
| Galα3(Fucα2)Galβ4GlcNAcβ3Galβ4Glcβ1Cer [No. 23] | non-binding |  |
| Galβ4GlcNAcβ3Galβ4GlcNAcβ3Galβ4Glcβ1Cer [No. 21] | displayed binding activity | amount of glycolipid giving a positive response on TLC plates (binding of Helicobacter pylori) [2]: ~0.2 nmol/spot; binding frequency for Helicobacter pylori [3]: ~90% |
| GalNAcα3(Fucα2)Galβ4GlcNAcβ3Galβ4Glcβ1Cer [No. 22] | non-binding |  |
| Fucα2Galβ4GlcNAcβ3Galβ4Glcβ1Cer [No. 18] | absence of binding |  |
| GlcNAcβ3Galβ4GlcNAcβ3Galβ4Glcβ1Cer [No. 10] |  | amount of glycolipid giving a positive response on TLC plates (binding of Helicobacter pylori) [2]: 0.039 nmol/spot; Helicobacter pylori binding activity of glycosphingolipid (in words) ([3]; listed as pentaglycosylceramide): strong activity; also recorded: displayed binding activity; binding frequency for Helicobacter pylori [3]: ~90% |
| NeuGcα3Galβ4GlcNAcβ3Galβ4GlcNAcβ3Galβ4Glcβ1Cer [No. 27] |  | binding by Helicobacter pylori isolates ([3]; about 60 isolates tested): bound by most Helicobacter pylori isolates |
| NeuAcα3GalNAcβ3Galβ4GlcNAcβ3Galβ4Glcβ1Cer [No. 24] | non-binding |  |
| CCCCCCCCCCCCCCCCc1ccc(NC[C@H](O)[C@@H](O)[C@H](O[C@@H]2O[C@H](CO)[C@H](O)[C@H](O[C@@H]3O[C@H](CO)[C@@H](O[C@@H]4O[C@H](CO)[C@H](O)[C@H](O[C@@H]5O[C@H](CO)[C@@H](O)[C@H](O)[C@H]5NC(C)=O)[C@H]4O)[C@H](O)[C@H]3NC(C)=O)[C@H]2O)[C@H](O)CO)cc1 [GlcNAcβ3Galβ4GlcNAcβ3Galβ4Glc(red)-HDA] |  | binding activity of neoglycolipid with regard to Helicobacter pylori (in words) [1]: observable binding activity |
| maltoheptaose(red)-HDA [maltoheptaose/red)-HDA, reference compound] |  | binding activity of neoglycolipid with regard to Helicobacter pylori (in words) [1]: totally inactive |
| Galα3Galβ4GlcNAcβ3Galβ4Glcβ1Cer [No. 13] | binding-active |  |
